The test system of the assay is human primary T-cells, IL-2 stimulated proliferation (JAK-1 and JAK-3 dependent; reported as JAK3 activity). Nature of the assay: Human primary T-cell proliferation stimulated by IL-2 (Example 3). The assay is classed as cell-based. To be noted: tested under conditions described in Example 3 (IL-2 stimulated human primary T-cell proliferation), read-out: ability to inhibit JAK3 activity, IC50 range (Table V). The text has this:
The activity of the compounds described herein can further be characterized by assaying the effect of the 2,4-pyrimidinediamine compounds described herein on the proliferative response of primary human T-cells. In this assay, primary human T-cells derived from peripheral blood and pre-activated through stimulation of the T-cell receptor and CD28, proliferate in culture in response to the cytokine Interleukin-2 (IL-2). This proliferative response is dependent on the activation of JAK1 and JAK3 tyrosine kinases, which phosphorylate and activate the transcription factor Stat-5. The primary human T-cells are incubated with the 2,4-pyrimidinediamine compounds in the presence of IL-2 for 72 hours, and at the assay endpoint intracellular ATP concentrations are measured to assess cell viability. A reduction in cell proliferation compared to control conditions is indicative of inhibition of the JAK kinase pathway.
Primary human T-cells derived from peripheral blood and pre-activated through stimulation of the T-cell receptor and CD28, proliferate in vitro in response to the cytokine Interleukin-2 (IL-2). This proliferative response is dependent on the activation of JAK-1 and JAK-3 tyrosine kinases, which phosphorylate and activate the transcription factor Stat-5.
Human primary T cells were prepared as follows. […] The lymphocytes at the serum: ficoll interface were recovered and washed twice with 5 volumes of PBS. […] The primary T-cells were stimulated for 3-4 days, then transferred to a fresh flask and maintained in RPMI with 10% FBS and 40 U/mL IL-2.
The day prior to the assay set up, primary T-cells were centrifuged and resuspended in fresh RPMI with 10% FBS but without IL-2 and starved overnight. For the assay, the primary T-cells were centrifuged and resuspended Yssel's medium at 2×10^6 cells/mL. 50 μL of cell suspension containing 80 U/mL IL-2 was added to each well of a flat bottom 96 well black plate. For the unstimulated control, IL-2 was omitted from the last column on the plate. […] 50 μL of 2× compound was added per well in duplicate and the cells were allowed to proliferate for 72 hours at 37° C.
Proliferation was measured using CellTiter-Glo® Luminescent Cell Viability Assay (Promega), which determines the number of viable cells in culture based on quantitation of the ATP present, as an indicator of metabolically active cells. The substrate was thawed and allowed to come to ambient temperature. After mixing the Cell Titer-Glo reagent and diluent together, 100 μL was added to each well. The plates were mixed on an orbital shaker for two minutes to induce lysis and incubated at ambient temperature for an additional ten minutes to allow the signal to equilibrate.
The compound designations in Table V are consistent with those of Tables I-IV above.

Where a name gives a salt, the structure may show the parent alone. Read-outs that look alike come from different tables or passages of the source.

For orientation: IC50 means the concentration needed to halve the response being measured. With `COc1cc(Nc2ncc(C)c(Nc3ccc4oc(=O)[nH]c4c3)n2)cc(C)c1C` [Compound I-535, 5-(2-(3-methoxy-4,5-dimethylphenylamino)-5-methylpyrimidin-4-ylamino)benzo[d]oxazol-2(3H)-one], the IC50 (Homo sapiens, T-cell) was under 500 nM.

For `Cc1cnc(Nc2ccc(C(=O)NC3CC3)c(C(F)(F)F)c2)nc1Nc1ccc2oc(=O)[nH]c2c1` [Compound I-223, N-cyclopropyl-4-(5-methyl-4-(2-oxo-2,3-dihydrobenzo[d]oxazol-5-ylamino)pyrimidin-2-ylamino)-2-(trifluoromethyl)benzamide], under “Homo sapiens, T-cell”, the IC50 is under 500 nM.

As for `Cc1cnc(Nc2ccc(N3CCSCC3)c(C#N)c2)nc1Nc1ccc2oc(=O)[nH]c2c1` [Compound I-339, N2-(3-cyano-4-thiomorpholino)phenyl-5-methyl-N4-(2-oxo-2,3-dihydro-1,3-benzoxazol-5-yl)-2,4-pyrimidinediamine], the IC50 is under 500 nM.

For the compound `Cc1cnc(Nc2ccc3c(c2)CN(CC2CC2)C3)nc1Nc1ccc2oc(=O)[nH]c2c1` [III-7, N4-(benzo[d]oxazol-2(3H)-on-5-yl)-N2-(2-cyclopropylmethylylisoindolin-5-yl)-5-methylpyrimidine-2,4-diamine], the IC50 is under 500 nM.

On to `O=c1[nH]c2ccc(Nc3nc(Nc4cccc(S(=O)(=O)N5CCOCC5)c4)ncc3F)cc2[nH]1` [Compound I-32, N4-(benzimidazolin-2-on-5-yl)-N2-(3-(morpholinosulfonyl)phenyl)-5-fluoropyrimidine-2,4-diamine], for which the IC50 was in the range of 500 to 5000 nM.

Turning to `CNC(C)c1cc(Nc2ncc(C)c(Nc3ccc4oc(=O)[nH]c4c3)n2)cc(OC)c1` (stereo not drawn) [Compound I-236, 5-(2-(3-methoxy-5-(1-(methylamino)ethyl)phenylamino)-5-methylpyrimidin-4-ylamino)benzo[d]oxazol-2(3H)-one], the IC50 (Homo sapiens, T-cell) was under 500 nM.

In the case of `Cc1cnc(Nc2ccc(N3CCC(NC(=O)NC(C)(C)C)C3)nc2)nc1Nc1ccc2oc(=O)[nH]c2c1` (stereo not drawn) [II-97, 1-tert-butyl-3-(1-(5-(5-methyl-4-(2-oxo-2,3-dihydrobenzo[d]oxazol-5-ylamino)pyrimidin-2-ylamino)pyridin-2-yl)pyrrolidin-3-yl)urea], the IC50 (Homo sapiens, T-cell) is under 500 nM.

For the compound `Cc1cnc(Nc2ccc(N3CCN[C@@H](C)C3)nc2)nc1Nc1ccc2oc(=O)[nH]c2c1` [II-44, 5-{5-Methyl-2-[6-((S)-3-methyl-piperazin-1-yl)-pyridin-3-ylamino]-pyrimidin-4-ylamino}-3H-benzooxazol-2-one], the IC50 (Homo sapiens, T-cell) was under 500 nM.

As for `Cc1cnc(Nc2cnc(N3CCN(C)CC3)c(F)c2)nc1Nc1ccc2oc(=O)[nH]c2c1` [II-111, N4-(benzo[d]oxazolin-2(3H)-one-5-yl)-N2-[3-fluoro-2-(4-methylpiperazin-1-yl)pyridine-5-yl]-5-methyl-2,4-pyrimidinediamine], the IC50 (Homo sapiens, T-cell) was under 500 nM.

On to `Cc1cnc(Nc2cccc(N3CCOCC3)c2)nc1Nc1ccc2oc(=O)[nH]c2c1` [Compound I-46, N4-(benzo[d]oxazol-2(3H)-on-5-yl)-N2-((3-morpholinyl)phenyl)-5-methylpyrimidine-2,4-diamine], for which the IC50 was under 500 nM.

Regarding `COc1cc(Nc2ncc(C)c(Nc3ccc4oc(=O)[nH]c4c3)n2)ccc1C(=O)N1CCOCC1` [Compound I-269, 5-(2-(3-methoxy-4-(morpholine-4-carbonyl)phenylamino)-5-methylpyrimidin-4-ylamino)benzo[d]oxazol-2(3H)-one], the IC50 (Homo sapiens, T-cell) was under 500 nM.

Turning to `CNC(=O)c1ccc(Nc2ncc(C)c(Nc3ccc4oc(=O)[nH]c4c3)n2)cc1` [Compound I-133, N-Methyl-4-[5-methyl-4-(2-oxo-2,3-dihydro-benzooxazol-5-ylamino)-pyrimidin-2-ylamino]-benzamide], for the setting “Homo sapiens, T-cell”, the IC50 was under 500 nM.

With `Cc1cnc(Nc2ccc(C(=O)O)cc2)nc1Nc1ccc2oc(=O)[nH]c2c1` [Compound I-126, 4-[5-Methyl-4-(2-oxo-2,3-dihydro-benzooxazol-5-ylamino)-pyrimidin-2-ylamino]-benzoic acid], under “Homo sapiens, T-cell”, the IC50 was under 500 nM.

For `Cc1cnc(Nc2cc(C)c(OC(F)F)c(C)c2)nc1Nc1ccc2oc(=O)[nH]c2c1` [Compound I-385, N2-(4-difluoromethoxy-3,5-dimethyl)phenyl-5-methyl-N4-(2-oxo-2,3-dihydro-1,3-benzoxazol-5-yl)-2,4-pyrimidinediamine], the IC50 was under 500 nM.

As for `Cc1cnc(Nc2ccc(N3CCN(C(C)C)[C@H](C)C3)nc2)nc1Nc1ccc2oc(=O)[nH]c2c1` [II-70, (R)-5-(2-(6-(4-isopropyl-3-methylpiperazin-1-yl)pyridin-3-ylamino)-5-methylpyrimidin-4-ylamino)benzo[d]oxazol-2(3H)-one], the half-maximal inhibitory concentration (IC50) (Homo sapiens, T-cell) is under 500 nM.

With `Cc1cnc(Nc2cc(F)c(F)c(F)c2F)nc1Nc1ccc2oc(=O)[nH]c2c1` [Compound I-477, 5-[5-Methyl-2-(2,3,4,5-tetrafluoro-phenylamino)-pyrimidin-4-ylamino]-3H-benzooxazol-2-one], the IC50 (Homo sapiens, T-cell) was in the range of 500 to 5000 nM.

Turning to `Cc1cnc(Nc2ccc(-c3ccc(Cl)nc3)cc2)nc1Nc1ccc2oc(=O)[nH]c2c1` [Compound I-509, 5-(2-(4-(6-chloropyridin-3-yl)phenylamino)-5-methylpyrimidin-4-ylamino)benzo[d]oxazol-2(3H)-one trifluoroacetate salt], for the setting “Homo sapiens, T-cell”, the IC50 was over 10000 nM.

On to `Cc1cnc(Nc2ccc(N3CCN4CCC[C@@H]4C3)nc2)nc1Nc1ccc2oc(=O)[nH]c2c1` [II-132, N2-[2-(R-1,4-diazabicylco[4.3.0]nonan-4-yl)pyridin-5-yl]-5-methyl-N4-(2-oxo-2,3-dihydro-1,3-benzoxazol-5-yl)-2,4-pyrimidinediamine], for which the IC50 is under 500 nM.

As to `Cc1cc(Nc2ncc(C)c(Nc3ccc4oc(=O)[nH]c4c3)n2)ccc1-c1cccnc1` [Compound I-483, 5-(5-methyl-2-(3-methyl-4-(pyridin-3-yl)phenylamino)pyrimidin-4-ylamino)benzo[d]oxazol-2(3H)-one formate salt], the IC50 (Homo sapiens, T-cell) was under 500 nM.

With `Cc1cnc(Nc2ccc(-c3ccncc3)c(F)c2)nc1Nc1ccc2oc(=O)[nH]c2c1` [Compound I-484, 5-(2-(3-fluoro-4-(pyridin-4-yl)phenylamino)-5-methylpyrimidin-4-ylamino)benzo[d]oxazol-2(3H)-one], the IC50 (Homo sapiens, T-cell) lay within 500 to 5000 nM.

Regarding `Cn1c(=O)n(C)c2cc(Nc3nc(Nc4cccc(NS(C)(=O)=O)c4)ncc3F)ccc21` [Compound I-42, N4-(1,3-dimethylbenzimidazolin-2-on-5-yl)-N2-((3-methylsulfonylamino)phenyl)-5-fluoropyrimidine-2,4-diamine], the IC50 lay within 500 to 5000 nM.

As for `Cc1cnc(Nc2ccc(N3CCC(NS(C)(=O)=O)C3)nc2)nc1Nc1ccc2oc(=O)[nH]c2c1` (stereo not drawn) [II-93, N-(1-(5-(5-methyl-4-(2-oxo-2,3-dihydrobenzo[d]oxazol-5-ylamino)pyrimidin-2-ylamino)pyridin-2-yl)pyrrolidin-3-yl)methanesulfonamide], the IC50 (Homo sapiens, T-cell) was under 500 nM.

`Cc1cnc(Nc2cc(Cl)cc(Br)c2)nc1Nc1ccc2oc(=O)[nH]c2c1` [Compound I-185, 5-[2-(3-Bromo-5-chloro-phenylamino)-5-methyl-pyrimidin-4-ylamino]-3H-benzooxazol-2-one]: for the setting “Homo sapiens, T-cell”, the IC50 is over 10000 nM.

In the case of `Cc1cnc(Nc2cc(C(C)(C)C)cc(C(C)(C)C)c2)nc1Nc1ccc2oc(=O)[nH]c2c1` [Compound I-355, N2-(3,5-di-tert-butyl)phenyl-5-methyl-N4-(2-oxo-2,3-dihydro-1,3-benzoxazol-5-yl)-2,4-pyrimidinediamine], the IC50 fell in the range of 500 to 5000 nM.

Take `Cc1cc(C)cc(Nc2ncc(C)c(Nc3cc(C)c4oc(=O)[nH]c4c3)n2)c1` [Compound I-474, 5-(2-(3,5-dimethylphenylamino)-5-methylpyrimidin-4-ylamino)-7-methylbenzo[d]oxazol-2(3H)-one]: the half-inhibitory concentration (IC50) (Homo sapiens, T-cell) is under 500 nM.

As to `Cc1cnc(Nc2cccc(S(C)(=O)=O)c2)nc1Nc1ccc2[nH]c(=O)[nH]c2c1` [Compound I-22, N4-(benzimidazolin-2-on-5-yl)-N2-(3-methylsulfonyl)phenyl-5-methylpyrimidine-2,4-diamine], the IC50 was under 500 nM.

In the case of `Cc1ccc(Nc2ncc(C)c(Nc3ccc4oc(=O)[nH]c4c3)n2)cc1C(F)F` [Compound I-438, 5-(2-(3-(difluoromethyl)-4-methylphenylamino)-5-methylpyrimidin-4-ylamino)benzo[d]oxazol-2(3H)-one], the IC50 (Homo sapiens, T-cell) was under 500 nM.

These data come from patent US10005767B2, “Compositions and methods for inhibition of the JAK pathway” (Rigel Pharmaceuticals, Inc., priority 2009, dated 2018).
